Source: patent publication US9409952B2, “Peptide-compound cyclization method” (Chugai Seiyaku Kabushiki Kaisha, priority 2011, dated 2016)
Like-named read-outs stand apart in the source and are kept apart here. Starred links: 1 amine or outer side, 2 acyl side, 3 side chain; linkers in the order of their positions; H or OH if unused. Positions of bridges follow the written chain, without caps; N, C: chain ends. Non-standard residues stand in square brackets, D forms with d. Residues, ends and D or L forms follow the SMILES beside them. *: point of attachment. Phe(3-(CH2)4CO) = O=C([C@H](Cc1cccc(CCCCC(=O)[*:3])c1)N[*:1])[*:2]; NMeF = CN[C@@H](Cc1ccccc1)C(=O)O; NMeI = CC[C@H](C)[C@H](NC)C(=O)O; NMeβAla = CN(CCC(=O)[*:2])[*:1]; Aoc(2) = CCCCCC[C@H](N)C(=O)O; NMeL = CN[C@@H](CC(C)C)C(=O)O; Phg = N[C@H](C(=O)O)c1ccccc1; NMeA = CN[C@@H](C)C(=O)O; Piperidide = C1CCN(*)CC1; β3hA = C[C@H](N)CC(=O)O; NPrGly = CCCNCC(=O)O; Sar = CNCC(=O)O; tBu = CC(C)(C)*

Legend:
[1] = PAMPA (parallel artificial membrane permeability assay); format: in vitro ADME; details: PAMPA
Method in brief: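 Artificial membrane was 10% (w/v) egg lecithin plus 0.5% (w/v) cholesterol in dodecane on a PVDF filter. A 10 mM DMSO stock was added at 0.5% (v/v) to donor buffer (50 mM MOPSO, pH 6.5, 5.0% glycocholic acid). After 18 h at 37 °C, LC/MS or LC/UV gave donor and acceptor levels for Pe.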

[2] = Metabolic stability in human hepatic microsome; format: in vitro ADME; details: for microsomal CLint at 1 uM: microsomes
[3] = membrane permeation rate (Pe), 50 mM MOPSO buffer pH 6.5 with 5.0% glycocholic acid, 37° C., 18 hours, read-out: iPAMPA Pe
[4] = pH 7.4, human hepatic microsome, NADPH(+), read-out: CL NADPH(+)

## CC(C)C[C@H]1C(=O)N(C)[C@@H](CC(C)C)C(=O)N[C@H](C(=O)N(C)[C@@H](Cc2ccccc2)C(=O)N[C@@H](C)C(=O)N2CCCCC2)CC(=O)N(C)CCC(=O)N(C)[C@@H](C)C(=O)N(C)[C@@H](CC(C)C)C(=O)N[C@@H]([C@@H](C)O)C(=O)N(C)[C@@H](Cc2ccccc2)C(=O)N[C@@H](C(C)C)C(=O)N(C)CC(=O)N1C [DP-194] ([NMeβAla][NMeA][NMeL]T[NMeF]V[Sar][NMeL][NMeL]D[NMeF]A-Piperidide; lactam N-10)
[1]; [3]
  Papp at 18 hours, 50 µM: 220 nm/s
[2]; [4]
  microsomal CLint at 1 uM: 72 µL/min/mg

## CC[C@H](C)[C@H]1C(=O)N[C@@H](CC(C)C)C(=O)N(C)[C@@H](CC(C)C)C(=O)N[C@@H](COC(C)(C)C)C(=O)N(C)[C@@H](CC(C)C)C(=O)N[C@@H](C)CC(=O)N(C)CCC(=O)N[C@@H](Cc2ccccc2)C(=O)N(C)[C@@H](Cc2ccccc2)C(=O)N(C)[C@@H](CC(C)C)C(=O)N[C@@H]([C@@H](C)O)C(=O)N(C)[C@@H](C)C(=O)N1C [DP-758] (cyclo(F[NMeF][NMeL]T[NMeA][NMeI]L[NMeL]S(tBu)[NMeL][β3hA][NMeβAla]))
[1]; pH 6.5
  Papp at 18 hours, 50 µM: 240 nm/s
[2]; human, pH 7.4, CL NADPH(+)
  microsomal CLint at 1 uM: 59 µL/min/mg

## CC[C@H](C)[C@H](NC(=O)[C@H](C)N(C)C(=O)[C@@H]1CC(=O)N[C@@H](C)C(=O)N[C@@H]([C@@H](C)CC)C(=O)N(C)[C@@H](C)C(=O)N(C)[C@@H](Cc2ccccc2)C(=O)N[C@@H]([C@@H](C)O)C(=O)N(C)[C@@H](Cc2ccccc2)C(=O)N[C@@H](CC(C)C)C(=O)N2CCC[C@H]2C(=O)N1)C(=O)N1CCCCC1 [DP-668] (AI[NMeA][NMeF]T[NMeF]LPD[NMeA]I-Piperidide; lactam N-9)
[1]; pH 6.5
  Papp at 18 hours, 50 µM: 260 nm/s
[2]; human, pH 7.4, CL NADPH(+)
  microsomal CLint at 1 uM: 142 µL/min/mg

## CC(C)C[C@H]1C(=O)N[C@@H]([C@@H](C)O)C(=O)N(C)[C@@H](CC(C)C)C(=O)N(C)CC(=O)N(C)[C@@H](Cc2ccccc2)C(=O)N[C@@H](COC(C)(C)C)C(=O)N[C@H](C(=O)N2CCCCC2)CC(=O)N1C [DP-717] ([NMeL]T[NMeL][Sar][NMeF]S(tBu)D-Piperidide; lactam N-7)
[1]; [3]
  Papp at 18 hours, 50 µM: 210 nm/s
[2]; [4]
  microsomal CLint at 1 uM: 101 µL/min/mg

## CC[C@H](C)[C@H]1C(=O)N[C@@H](CC(C)C)C(=O)N(C)[C@@H](C)C(=O)N(C)[C@@H](Cc2ccccc2)C(=O)NCC(=O)N[C@@H]([C@@H](C)O)C(=O)N[C@@H](Cc2ccccc2)C(=O)N(C)[C@@H](CC(C)C)C(=O)N2CCC[C@H]2C(=O)N[C@H](C(=O)N2CCCCC2)Cc2cccc(c2)CCCCC(=O)N[C@@H](CC(C)C)C(=O)N1C [DP-877] (L[NMeI]L[NMeA][NMeF]GTF[NMeL]P[Phe(3-(CH2)4CO)]-Piperidide; lactam N-11)
[1]; [3]
  Papp at 18 hours, 50 µM: 46 nm/s
[2]; [4]
  microsomal CLint at 1 uM: 43 µL/min/mg

## CC(C)C[C@H]1C(=O)NCC(=O)N[C@H](C(=O)N2CCCCC2)CC(=O)N[C@@H](c2ccccc2)C(=O)N[C@@H]([C@@H](C)O)C(=O)N(C)[C@@H](C)C(=O)N(C)[C@@H](Cc2ccccc2)C(=O)N(C)[C@@H](Cc2ccccc2)C(=O)N[C@@H](COC(C)(C)C)C(=O)N1C [DP-563] ([Phg]T[NMeA][NMeF][NMeF]S(tBu)[NMeL]GD-Piperidide; lactam N-9)
[1]; [3]
  Papp at 18 hours, 50 µM: 350 nm/s
[2]; [4]
  microsomal CLint at 1 uM: 111 µL/min/mg

## CCCN1CC(=O)N(C)[C@@H](CC(C)C)C(=O)N[C@@H]([C@@H](C)O)C(=O)N(C)[C@@H](Cc2ccccc2)C(=O)N(C)[C@@H](CC(C)C)C(=O)N(C)[C@@H]([C@@H](C)CC)C(=O)N(C)[C@@H](C)C(=O)N[C@H](C(=O)N2CCCCC2)CC(=O)N(C)CC(=O)N[C@@H](COC(C)(C)C)C1=O [DP-543] ([Sar]S(tBu)[NPrGly][NMeL]T[NMeF][NMeL][NMeI][NMeA]D-Piperidide; lactam N-10)
[1]; [3]
  Papp at 18 hours, 50 µM: 280 nm/s
[2]; [4]
  microsomal CLint at 1 uM: 23 µL/min/mg

## CCCCCC[C@@H]1NC(=O)[C@H](CC(C)C)N(C)C(=O)CN(C)C(=O)[C@H](CC(C)C)NC(=O)C[C@H](C)NC(=O)[C@H](CC(C)C)N(C)C(=O)[C@H](CC(C)C)N(C)C(=O)[C@H](CC(C)C)N(C)C(=O)[C@@H](C)NC(=O)[C@H](CO)NC(=O)[C@H](CC(C)C)N(C)C1=O [DP-647] (cyclo([Aoc(2)][NMeL]S[dA][NMeL][NMeL][NMeL][β3hA]L[Sar][NMeL]))
[1]; [3]
  Papp at 18 hours, 50 µM: 290 nm/s
[2]; [4]
  microsomal CLint at 1 uM: 132 µL/min/mg

## CC(C)C[C@H]1C(=O)N[C@@H](COC(C)(C)C)C(=O)N[C@H](C(=O)N2CCCCC2)CC(=O)N(C)[C@@H](C)C(=O)N(C)[C@@H](C)C(=O)N(C)[C@@H](Cc2ccccc2)C(=O)N(C)[C@@H](CC(C)C)C(=O)N[C@@H]([C@@H](C)O)C(=O)N(C)CC(=O)N1C [DP-39] ([NMeA][NMeA][NMeF][NMeL]T[Sar][NMeL]S(tBu)D-Piperidide; lactam N-9)
[1]; pH 6.5
  Papp at 18 hours, 50 µM: 160 nm/s
[2]; human hepatic microsome, NADPH(+)
  CL NADPH(+): 67
